Measured values as given in publication PMC8510344, “Bile-Acid-Appended Triazolyl Aryl Ketones: Design, Synthesis, In Vitro Anticancer Activity and Pharmacokinetics in Rats” (Molecules, 2021).

What was measured:
[1] = test system: MCF-7 (human breast adenocarcinoma) cells; assay: MTT cytotoxicity assay, MCF-7; assay type: cell-based; conditions: Homo sapiens; for viability at 10 µM: MCF7, 10 µM, 48 h exposure, read-out: % Cell Viability at 10 µM MCF-7
Experimental: (§1) The cytotoxicity activity of all the conjugates (6aa–6df) was evaluated in vitro by MTT assay against two different breast cancer cell lines 4T1 (murine) and MCF-7 (human) and HEK 293 (human) as normal cell line. DTX was used as positive control. Cells were grown in DMEM supplemented with 10% FBS and 1% antibiotic solution and incubated at 5% CO2 and 37 °C for 24 h. The stock solutions of all the conjugates were prepared in DMSO and diluted for further use. Briefly, 5 × 10^3 cells/well were seeded in 96-well cell culture plates and allowed to adhere for 24 h. Cell inhibition (%) was determined after 48 h exposure to the compounds at 1–25 μM concentration. After 48 h, MTT assay was performed and the yellow tetrazolium salt (MTT) was reduced in metabolically active cells to form insoluble purple formazan crystals, which were solubilized by the addition of DMSO. The optical density (OD) was recorded at 560 nm and 630 nm as reference wavelength. Percentage cell inhibition was determined by comparison with untreated cells.

[2] = test system: 4T1 (mouse mammary carcinoma) cells; assay: MTT cytotoxicity assay, 4T1; assay type: cell-based; conditions: Mus musculus; for viability at 10 µM: 48 h exposure, read-out: % Cell Viability at 10 µM 4T1
Experimental: as §1

[3] = MTT cytotoxicity assay, normal cell line HEK 293; assay type: cell-based; conditions: human, HEK 293 cells, HEK 293 normal cells, 48 h exposure
Experimental: as §1

SMILES	viability at 10 µM [1] [%]	viability at 10 µM [2] [%]	melting point [°C]	viability at 48 h, 10 µM [3] [%]	IC50 ([1]; MCF7, 48 h, 48 h) [µM]	IC50 ([2]; 48 h) [µM]
C[C@H](CCC(=O)NCc1cn(CC(=O)c2ccc(F)cc2)nn1)C1CCC2C3C(C[C@H](O)[C@@]21C)[C@@]1(C)CC[C@@H](O)CC1C[C@H]3O (stereo partly drawn) [6cd, (4R)-N-((1-(2-(4-Fluorophenyl)-2-oxoethyl)-1H-1,2,3-triazol-4-yl)methyl)-4-((3R,7R,10S,12S,13R)-3,7,12-trihydroxy-10,13-dimethylhexadecahydro-1H-cyclopenta[a]phenanthren-17-yl)pentanamide]	88.7	70.7	137 to 138	97.5	–	–
C[C@H](CCC(=O)NCc1cn(CC(=O)c2ccc(Cl)cc2)nn1)C1CCC2C3CCC4C[C@H](O)CC[C@]4(C)C3C[C@H](O)[C@@]21C (stereo partly drawn) [6de, (4R)-N-((1-(2-(4-Chlorophenyl)-2-oxoethyl)-1H-1,2,3-triazol-4-yl)methyl)-4-((3R,10S,12S,13R)-3,12-dihydroxy-10,13-dimethylhexadecahydro-1H-cyclopenta[a]phenanthren-17-yl)pentanamide]	86.8	62.9	100 to 101	90.5	–	–
C[C@H](CCC(=O)NCc1cn(CC(=O)c2ccccc2)nn1)C1CCC2C3CCC4C[C@H](O)CC[C@]4(C)C3C[C@H](O)[C@@]21C (stereo partly drawn) [6da, (4R)-4-((3R,10S,12S,13R)-3,12-Dihydroxy-10,13-dimethylhexadecahydro-1H-cyclopenta[a]phenanthren-17-yl)-N-((1-(2-oxo-2-phenylethyl)-1H-1,2,3-triazol-4-yl)methyl)pentanamide]	91.2	99.6	135 to 136	97.9	–	–
C[C@H](CCC(=O)OCc1cn(CC(=O)c2ccccc2)nn1)C1CCC2C3CCC4C[C@H](O)CC[C@]4(C)C3C[C@H](O)[C@@]21C (stereo partly drawn) [6ba, (1-(2-Oxo-2-phenylethyl)-1H-1,2,3-triazol-4-yl)methyl (4R)-4-((3R,10S,12S,13R)-3,12-dihydroxy-10,13-dimethylhexadecahydro-1H-cyclopenta[a]phenanthren-17-yl)pentanoate]	91.9	97.8	143 to 144	88.9	–	–
C[C@H](CCC(=O)OCc1cn(CC(=O)c2ccccc2)nn1)C1CCC2C3C(C[C@H](O)[C@@]21C)[C@@]1(C)CC[C@@H](O)CC1C[C@H]3O (stereo partly drawn) [6aa, (1-(2-Oxo-2-phenylethyl)-1H-1,2,3-triazol-4-yl)methyl (4R)-4-((3R,7R,10S,12S,13R)-3,7,12-trihydroxy-10,13-dimethylhexadecahydro-1H-cyclopenta[a]phenanthren-17-yl)pentanoate]	77.3	74.3	108 to 109	86.1	–	–
COc1ccc(C(=O)Cn2cc(CNC(=O)CC[C@@H](C)C3CCC4C5CCC6C[C@H](O)CC[C@]6(C)C5C[C@H](O)[C@@]43C)nn2)cc1 (stereo partly drawn) [6dc, (4R)-4-((3R,10S,12S,13R)-3,12-Dihydroxy-10,13-dimethylhexadecahydro-1H-cyclopenta[a]phenanthren-17-yl)-N-((1-(2-(4-methoxyphenyl)-2-oxoethyl)-1H-1,2,3-triazol-4-yl)methyl)pentanamide]	68.5	64.9	114 to 115	86.5	–	–
COc1ccc(C(=O)Cn2cc(CNC(=O)CC[C@@H](C)C3CCC4C5C(C[C@H](O)[C@@]43C)[C@@]3(C)CC[C@@H](O)CC3C[C@H]5O)nn2)cc1 (stereo partly drawn) [6cc, (4R)-N-((1-(2-(4-Methoxyphenyl)-2-oxoethyl)-1H-1,2,3-triazol-4-yl)methyl)-4-((3R,7R,10S,12S,13R)-3,7,12-trihydroxy-10,13-dimethylhexadecahydro-1H-cyclopenta[a]phenanthren-17-yl)pentanamide]	95.4	56.8	–	96.8	–	–
C[C@H](CCC(=O)OCc1cn(CC(=O)c2ccc(F)cc2)nn1)C1CCC2C3CCC4C[C@H](O)CC[C@]4(C)C3C[C@H](O)[C@@]21C (stereo partly drawn) [6bd, (1-(2-(4-Fluorophenyl)-2-oxoethyl)-1H-1,2,3-triazol-4-yl)methyl (4R)-4-((3R,10S,12S,13R)-3,12-dihydroxy-10,13-dimethylhexadecahydro-1H-cyclopenta[a]phenanthren-17-yl)pentanoate]	79.6	52.4	127 to 128	89.4	–	–
Cc1ccc(C(=O)Cn2cc(CNC(=O)CC[C@@H](C)C3CCC4C5C(C[C@H](O)[C@@]43C)[C@@]3(C)CC[C@@H](O)CC3C[C@H]5O)nn2)cc1 (stereo partly drawn) [6cb, (4R)-N-((1-(2-Oxo-2-(p-tolyl)ethyl)-1H-1,2,3-triazol-4-yl)methyl)-4-((3R,7R,10S,12S,13R)-3,7,12-trihydroxy-10,13-dimethylhexadecahydro-1H-cyclopenta[a]phenanthren-17-yl)pentanamide]	61.9	96.7	129 to 131	86	–	–
C[C@H](CCC(=O)NCc1cn(CC(=O)c2ccccc2)nn1)C1CCC2C3C(C[C@H](O)[C@@]21C)[C@@]1(C)CC[C@@H](O)CC1C[C@H]3O (stereo partly drawn) [6ca, (4R)-N-((1-(2-Oxo-2-phenylethyl)-1H-1,2,3-triazol-4-yl)methyl)-4-((3R,7R,10S,12S,13R)-3,7,12-trihydroxy-10,13-dimethylhexadecahydro-1H-cyclopenta[a]phenanthren-17-yl)pentanamide]	92.1	85.2	148 to 149	90.1	–	–
COc1ccc(C(=O)Cn2cc(COC(=O)CC[C@@H](C)C3CCC4C5C(C[C@H](O)[C@@]43C)[C@@]3(C)CC[C@@H](O)CC3C[C@H]5O)nn2)cc1 (stereo partly drawn) [6ac, (1-(2-(4-Methoxyphenyl)-2-oxoethyl)-1H-1,2,3-triazol-4-yl)methyl (4R)-4-((3R,7R,10S,12S,13R)-3,7,12-trihydroxy-10,13-dimethylhexadecahydro-1H-cyclopenta[a]phenanthren-17-yl)pentanoate]	55.6	80	176 to 177	87.9	–	–
Cc1ccc(C(=O)Cn2cc(COC(=O)CC[C@@H](C)C3CCC4C5C(C[C@H](O)[C@@]43C)[C@@]3(C)CC[C@@H](O)CC3C[C@H]5O)nn2)cc1 (stereo partly drawn) [6ab, (1-(2-Oxo-2-(p-tolyl)ethyl)-1H-1,2,3-triazol-4-yl)methyl (4R)-4-((3R,7R,10S,12S,13R)-3,7,12-trihydroxy-10,13-dimethylhexadecahydro-1H-cyclopenta[a]phenanthren-17-yl)pentanoate]	57.4	72.9	–	87.6	–	–
CC(=O)O[C@@]12CO[C@@H]1C[C@H](O)[C@@]1(C)C(=O)[C@H](O)C3=C(C)[C@@H](OC(=O)[C@H](O)[C@@H](NC(=O)OC(C)(C)C)c4ccccc4)C[C@@](O)([C@@H](OC(=O)c4ccccc4)[C@H]21)C3(C)C [DTX, Docetaxel, reference compound]	46.5	56.9	–	–	9.46 ± 0.98	13.8 ± 1.07
